Target: T1, FamC1 (Fischerella ambigua, UniProt A0A076N4W8, N137A)
T1 construct: gene ambU4; recombinant; homodimer in crystal
Test: X-ray crystallography, […] A
Conditions: Ca1 site empty, Ca2 bound; substrate-binding pocket; ligand came from the crystallization solution, not added on purpose

T1 sequence (A0A076N4W8 entry or part of it N137A): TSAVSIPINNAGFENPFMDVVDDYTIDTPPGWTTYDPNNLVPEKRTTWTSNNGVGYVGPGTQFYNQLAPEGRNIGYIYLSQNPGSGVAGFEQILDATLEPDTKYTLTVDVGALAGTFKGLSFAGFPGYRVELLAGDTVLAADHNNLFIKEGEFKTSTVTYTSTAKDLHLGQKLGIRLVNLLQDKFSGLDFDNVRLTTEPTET

N=C(N)NCCC[C@@H]1NC(=O)[C@H]2CCCN2C1=O [CI-4]
X-ray crystallography, 1.48 A: The N137A crystal was grown in the same crystallization condition and one molecule of CI-4
